Values after ≈ are worked out from the molar mass of the structure shown. Active and inactive are the calls of the source. The calls are words filed in the database; no cut-off is given here.
Columns and labels:
[1] = Half life in female dog at 1 to 2 mg/kg, iv; format: ADME, organism-based, Canis lupus familiaris; set-up: dose 1-2 mg/kg, route intravenous; conditions: in vivo
Cytochrome P450 2D6 = Cytochrome P450 2D6 (Homo sapiens, UniProt P10635); test: Inhibition of CYP2D6; format: ADME
[2] = Apparent permeability from apical to basal side of human Caco2 cells at 100 uM; format: ADME, cell-based; conditions: Caco-2
Cytochrome P450 2C9 = Cytochrome P450 2C9 (Homo sapiens, UniProt P11712); test: Inhibition of CYP2C9; format: ADME
Cytochrome P450 2C9, sequence (P11712 whole entry): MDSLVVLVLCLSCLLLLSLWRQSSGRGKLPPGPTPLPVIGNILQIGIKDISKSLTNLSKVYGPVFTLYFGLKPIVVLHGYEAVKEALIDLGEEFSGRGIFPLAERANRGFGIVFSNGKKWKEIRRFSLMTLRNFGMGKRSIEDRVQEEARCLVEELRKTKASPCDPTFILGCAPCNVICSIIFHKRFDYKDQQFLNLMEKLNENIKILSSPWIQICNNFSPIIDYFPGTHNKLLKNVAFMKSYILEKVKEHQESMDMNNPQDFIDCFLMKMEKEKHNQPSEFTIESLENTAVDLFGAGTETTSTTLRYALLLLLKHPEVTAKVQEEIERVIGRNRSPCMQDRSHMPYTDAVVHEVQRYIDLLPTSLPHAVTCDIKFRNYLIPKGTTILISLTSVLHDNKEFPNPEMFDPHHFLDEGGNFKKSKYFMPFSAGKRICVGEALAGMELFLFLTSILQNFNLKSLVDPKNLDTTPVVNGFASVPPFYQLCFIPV

[3] = Clearance in male dog at 1 to 2 mg/kg, iv; format: ADME, organism-based, Canis lupus familiaris; set-up: dose 1-2 mg/kg, route intravenous; conditions: in vivo
[4] = biological target: T1, C-C chemokine receptor type 5 (Homo sapiens, UniProt P51681); test: Antagonist activity at CCR5 in human whole blood assessed as inhibition of MIP-1beta-induced receptor internalization; format: functional, tissue-based
Target sequence in this assay (P51681 whole entry, looked up): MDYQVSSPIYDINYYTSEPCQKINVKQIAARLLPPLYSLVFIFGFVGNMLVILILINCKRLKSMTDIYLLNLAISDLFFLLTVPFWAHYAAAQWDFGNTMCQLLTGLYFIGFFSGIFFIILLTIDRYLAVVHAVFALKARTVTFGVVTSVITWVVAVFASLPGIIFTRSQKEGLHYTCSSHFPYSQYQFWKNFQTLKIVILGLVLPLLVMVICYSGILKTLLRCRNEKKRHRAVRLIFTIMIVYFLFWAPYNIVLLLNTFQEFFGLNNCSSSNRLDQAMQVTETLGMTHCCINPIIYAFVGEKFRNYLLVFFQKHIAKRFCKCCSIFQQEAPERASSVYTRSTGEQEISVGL

Cytochrome P450 1A1 = biological target: T2, Cytochrome P450 1A1 (Homo sapiens, UniProt P04798); test: Inhibition of CYP1A1; format: ADME
T2 sequence (P04798 whole entry): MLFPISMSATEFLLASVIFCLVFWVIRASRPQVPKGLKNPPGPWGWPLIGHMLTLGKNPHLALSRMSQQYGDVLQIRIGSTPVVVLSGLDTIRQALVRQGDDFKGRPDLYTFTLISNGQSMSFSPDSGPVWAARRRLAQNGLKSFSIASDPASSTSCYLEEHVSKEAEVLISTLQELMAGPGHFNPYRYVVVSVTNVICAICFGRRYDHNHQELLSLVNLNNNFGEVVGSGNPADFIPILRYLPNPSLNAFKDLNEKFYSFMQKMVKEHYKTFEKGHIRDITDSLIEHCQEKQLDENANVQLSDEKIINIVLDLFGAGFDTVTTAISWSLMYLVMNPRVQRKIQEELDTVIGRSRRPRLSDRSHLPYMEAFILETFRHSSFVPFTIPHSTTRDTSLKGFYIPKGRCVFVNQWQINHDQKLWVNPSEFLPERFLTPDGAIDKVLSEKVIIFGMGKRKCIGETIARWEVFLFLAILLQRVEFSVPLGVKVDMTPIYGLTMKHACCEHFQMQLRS

[5] = Aqueous solubility of the compound at pH 7.4; format: physicochemical; conditions: buffer
[6] = Half life in rat at 1 to 2 mg/kg, iv; format: ADME, organism-based; set-up: dose 1-2 mg/kg, route intravenous; conditions: in vivo
Cytochrome P450 2C19 = Cytochrome P450 2C19 (Homo sapiens, UniProt P33261); test: Inhibition of CYP2C19; format: ADME
Cytochrome P450 2C19, sequence (P33261 whole entry): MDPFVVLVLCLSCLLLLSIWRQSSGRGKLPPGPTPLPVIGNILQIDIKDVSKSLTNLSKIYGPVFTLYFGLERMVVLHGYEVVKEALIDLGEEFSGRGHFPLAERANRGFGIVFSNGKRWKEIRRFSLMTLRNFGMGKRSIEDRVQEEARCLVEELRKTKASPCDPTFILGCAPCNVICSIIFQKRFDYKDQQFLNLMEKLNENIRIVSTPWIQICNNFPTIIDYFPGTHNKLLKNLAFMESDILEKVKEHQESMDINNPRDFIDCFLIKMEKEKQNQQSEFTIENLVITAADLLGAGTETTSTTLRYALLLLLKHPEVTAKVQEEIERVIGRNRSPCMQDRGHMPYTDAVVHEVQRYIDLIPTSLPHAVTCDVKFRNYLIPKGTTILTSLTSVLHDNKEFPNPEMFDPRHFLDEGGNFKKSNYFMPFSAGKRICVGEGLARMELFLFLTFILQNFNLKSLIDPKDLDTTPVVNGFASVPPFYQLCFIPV

[7] = Lipophilicity, log D of the compound at pH 7.4; conditions: buffer
[8] = Volume of distribution at steady state in rat at 1 to 2 mg/kg, iv; format: ADME, organism-based; set-up: dose 1-2 mg/kg, route intravenous; conditions: in vivo, read-out: Vdss
[9] = Oral bioavailability in male dog at 2 to 5 mg/kg; format: ADME, organism-based, Canis lupus familiaris; conditions: in vivo
Homo sapiens = species on record: Homo sapiens; test: Antiarthritis activity in rheumatoid arthritis patient at 150 mg; format: functional, organism-based
[10] = Oral bioavailability in female dog at 2 to 5 mg/kg; format: ADME, organism-based, Canis lupus familiaris; conditions: in vivo
[11] = Volume of distribution at steady state in male dog at 1 to 2 mg/kg, iv; format: ADME, organism-based, Canis lupus familiaris; set-up: dose 1-2 mg/kg, route intravenous; conditions: in vivo, read-out: Vdss
[12] = Fraction unbound in human plasma; format: ADME, cell-free
[13] = Clearance in rat at 1 to 2 mg/kg, iv; format: ADME, organism-based; set-up: dose 1-2 mg/kg, route intravenous; conditions: in vivo
[14] = Intrinsic clearance in human liver microsomes; conditions: liver microsomes
[15] = Volume of distribution at steady state in female dog at 1 to 2 mg/kg, iv; format: ADME, organism-based, Canis lupus familiaris; set-up: dose 1-2 mg/kg, route intravenous; conditions: in vivo, read-out: Vdss
[16] = Apparent permeability from apical to basal side of human Caco2 cells at 10 uM; format: ADME, cell-based; conditions: Caco-2
[17] = Clearance in female dog at 1 to 2 mg/kg, iv; format: ADME, organism-based, Canis lupus familiaris; set-up: dose 1-2 mg/kg, route intravenous; conditions: in vivo
[18] = Dissociation constant, pKa of the compound; format: physicochemical
[19] = biological target: T1, C-C chemokine receptor type 5; test: Displacement of [125I]MIP-1alpha from human recombinant CCR5 expressed in CHO cells; format: cell-based
Target sequence in this assay (P51681 whole entry): as the sequence (P51681 whole entry, looked up) above

[20] = Apparent permeability from basal to apical side of human Caco2 cells at 10 uM; format: ADME, cell-based; conditions: Caco-2
[21] = Plasma protein binding in human; format: ADME, cell-free; conditions: read-out: PPB (converted)
[22] = Apparent permeability from basal to apical side of human Caco2 cells at 100 uM; format: ADME, cell-based; conditions: Caco-2
Cytochrome P450 3A4 = Cytochrome P450 3A4 (Homo sapiens, UniProt P08684); test: Inhibition of CYP3A4; format: ADME
Cytochrome P450 3A4, sequence (P08684 whole entry): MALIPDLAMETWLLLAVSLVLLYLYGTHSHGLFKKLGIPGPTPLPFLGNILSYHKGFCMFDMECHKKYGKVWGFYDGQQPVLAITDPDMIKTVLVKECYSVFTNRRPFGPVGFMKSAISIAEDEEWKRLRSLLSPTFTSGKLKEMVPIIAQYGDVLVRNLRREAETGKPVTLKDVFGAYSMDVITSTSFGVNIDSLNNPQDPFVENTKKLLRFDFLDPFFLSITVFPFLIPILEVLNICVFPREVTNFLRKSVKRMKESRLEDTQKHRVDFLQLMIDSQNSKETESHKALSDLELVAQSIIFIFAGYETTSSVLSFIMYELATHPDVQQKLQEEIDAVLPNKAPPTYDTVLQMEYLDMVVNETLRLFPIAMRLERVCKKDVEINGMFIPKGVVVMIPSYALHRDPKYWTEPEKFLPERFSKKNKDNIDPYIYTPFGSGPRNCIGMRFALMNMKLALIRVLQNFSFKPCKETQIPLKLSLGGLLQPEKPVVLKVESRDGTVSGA

[23] = Oral bioavailability in rat at 2 to 5 mg/kg; format: ADME, organism-based; conditions: in vivo
[24] = Half life in male dog at 1 to 2 mg/kg, iv; format: ADME, organism-based, Canis lupus familiaris; set-up: dose 1-2 mg/kg, route intravenous; conditions: in vivo

Cytochrome P450 2D6, sequence (P10635 whole entry): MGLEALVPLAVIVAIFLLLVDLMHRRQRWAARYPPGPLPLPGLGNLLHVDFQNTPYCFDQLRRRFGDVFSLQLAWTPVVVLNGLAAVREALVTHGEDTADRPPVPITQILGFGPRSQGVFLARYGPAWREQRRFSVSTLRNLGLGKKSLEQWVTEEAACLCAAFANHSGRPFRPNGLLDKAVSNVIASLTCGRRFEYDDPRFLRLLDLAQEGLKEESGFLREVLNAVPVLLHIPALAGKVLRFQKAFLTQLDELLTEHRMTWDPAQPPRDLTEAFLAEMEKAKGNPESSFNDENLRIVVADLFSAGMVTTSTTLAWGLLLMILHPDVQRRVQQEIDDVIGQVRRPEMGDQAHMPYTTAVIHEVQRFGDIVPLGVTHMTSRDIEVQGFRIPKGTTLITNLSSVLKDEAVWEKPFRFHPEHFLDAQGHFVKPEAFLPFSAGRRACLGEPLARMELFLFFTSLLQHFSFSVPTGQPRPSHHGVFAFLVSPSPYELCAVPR

## CCN(C(=O)Cc1ccc(S(C)(=O)=O)cc1)C1CCN(CC[C@@H](c2cc(F)cc(F)c2)C2CCN(S(C)(=O)=O)CC2)CC1 [AZD5672]
[1]
  half-life: 3.8 h
Cytochrome P450 2D6
  IC50: 23 µM
[2]
  Papp A→B at 100 µM: 1.4 ×10⁻⁶ cm/s
Cytochrome P450 2C9
  IC50: > 50 µM
[3]
  clearance: 15 mL/min/kg
[4]
  A2: 0.76 nM
Cytochrome P450 1A1
  IC50: > 50 µM
[5]
  solubility: 2700 µM (≈ 1730 µg/mL)
[6]
  half-life: 2.1 h
Cytochrome P450 2C19
  IC50: > 50 µM
[7]
  logD: 1.5
[8]
  Vd: 5 L/kg
[9]
  bioavailability: 46%
Homo sapiens
  Activity: inactive
[10]
  bioavailability: 51%
[11]
  Vd: 4.5 L/kg
[12]
  fraction unbound: 0.08
[13]
  clearance: 38 mL/min/kg
[14]
  microsomal CLint: 18 µL/min/mg
[15]
  Vd: 5.8 L/kg
[16]
  Papp A→B at 10 µM: 0.7 ×10⁻⁶ cm/s
[17]
  clearance: 22 mL/min/kg
[18]
  pKa: 8.4
[19]
  IC50: 0.00026 µM
[20]
  Papp B→A at 10 µM: 9.2 ×10⁻⁶ cm/s
[21]
  fraction unbound: 0.08
[22]
  Papp B→A at 100 µM: 11 ×10⁻⁶ cm/s
Cytochrome P450 3A4
  IC50: 9 µM
[23]
  bioavailability: 41%
[24]
  half-life: 3.9 h

From ChEMBL document CHEMBL1949642 (Bioorg Med Chem Lett, 2012)
